According to ChEMBL document CHEMBL1156043, “Selective inactivation of triosephosphate isomerase from Trypanosoma cruzi by brevifolin carboxylate derivatives isolated from Geranium bellum Rose” (Bioorg Med Chem Lett, 2009):

How the values were obtained:
[1] = molecular target: T1, Triosephosphate isomerase, glycosomal (Trypanosoma cruzi, UniProt P52270); assay: Inhibition of Trypanosoma cruzi recombinant triosephosphate isomerase after 2 hrs; conditions: read-out: I50
[2] = molecular target: Triosephosphate isomerase (Homo sapiens, UniProt P60174); assay: Inhibition of human recombinant triosephosphate isomerase after 2 hrs; conditions: read-out: I50
[3] = molecular target: T1, Triosephosphate isomerase, glycosomal; assay: Binding affinity to Trypanosoma cruzi recombinant triosephosphate isomerase; conditions: read-out: Kd(app)

T1 sequence (P52270 whole entry): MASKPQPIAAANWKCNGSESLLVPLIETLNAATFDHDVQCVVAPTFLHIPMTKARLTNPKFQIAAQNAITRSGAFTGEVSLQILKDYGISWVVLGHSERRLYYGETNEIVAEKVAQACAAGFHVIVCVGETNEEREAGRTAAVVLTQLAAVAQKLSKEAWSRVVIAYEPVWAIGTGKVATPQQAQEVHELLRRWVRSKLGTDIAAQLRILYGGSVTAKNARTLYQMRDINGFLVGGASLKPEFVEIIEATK
Triosephosphate isomerase, sequence (P60174 whole entry): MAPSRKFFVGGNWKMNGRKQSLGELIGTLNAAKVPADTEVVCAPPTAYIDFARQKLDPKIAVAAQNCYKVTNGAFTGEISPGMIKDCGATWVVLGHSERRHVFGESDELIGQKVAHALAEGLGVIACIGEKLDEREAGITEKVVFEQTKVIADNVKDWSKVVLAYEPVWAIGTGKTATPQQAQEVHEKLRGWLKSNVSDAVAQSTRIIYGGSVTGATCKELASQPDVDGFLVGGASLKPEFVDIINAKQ

SMILES | IC50 [1] [µM] | IC50 [2] [µM] | Kd [3] [µM]
CCOC(=O)C1CC(=O)c2oc(=O)c3cc(O)c(O)c(O)c3c21 (centres undefined) [ETHYLBREVIFOLIN CARBOXYLATE] | 8 | > 1000 | –
CCCCOC(=O)C1CC(=O)c2oc(=O)c3cc(O)c(O)c(O)c3c21 (centres undefined) [BUTYLBREVIFOLIN CARBOXYLATE] | 14 | > 1000 | –
COC(=O)C1CC(=O)c2oc(=O)c3cc(O)c(O)c(O)c3c21 (centres undefined) [METHYLBREVIFOLIN CARBOXYLATE] | 6.5 | > 1000 | 10.4
COC(=O)C1CC(=O)c2oc(=O)c3cc(OC)c(OC)c(OC)c3c21 (centres undefined) | > 1000 | > 1000 | –
